Laboratory results: article PMC5400565, “Real-time near-infrared fluorescence imaging using cRGD-ZW800-1 for intraoperative visualization of multiple cancer types” (Oncotarget, 2017)

Assays:
Potassium Channel hERG = Potassium Channel hERG (Homo sapiens, UniProt Q12809)
KV channel = assay: Off-target screening (Eurofins Cerep), KV channel; type: binding
From the text: (§1) Off-target interactions are binding of tracers to other components on the cell surface than the actual target site. These non-specific interactions are often of low affinity and easily missed, but can have significant effects. We outsourced the screening for in vitro for off-target interactions of cRGD-ZW800-1 to Eurofins Cerep SA, Le bois l’Evêque, France. They assessed the percentage of inhibition of a reference compound in 44 selected targets, including G protein-coupled receptors (GPCRs), transporters, ion channels, nuclear receptors, kinases and other non-kinase enzymes. These targets were recommended by four major pharmaceutical companies. The complete list is included in Supplementary Table 1 of the Supplementary Data. Each assay was performed twice using 10 μM cRGD-ZW800-1 and a reference compound. Inhibition higher than 50% was considered to represent a significant effect of cRGD-ZW800-1. Results showing between 20% and 50% were considered weak to moderate effects, while lower than 20% was not considered significant and mostly attributable to variability of the signal around the control level.

HT-29 tumors and organs = assay: Ex vivo biodistribution, HT-29 model; type: in vivo, mice; conditions: 24 h post injection
Experimental: After imaging, mice were sacrificed and OSC-19 and BxPC-3 tumors were quickly frozen in isopentane at -80°C for histological evaluation. Tissues were sectioned at 10 μm and fluorescence imaging was performed using fluorescence microscopy (Nikon eclipse e800, Nikon, Amsterdam, The Netherlands). All histologic sections were stained with standard hematoxylin-eosin stain (HE). Organs of mice with colorectal and pancreatic cancer were collected and imaged using the Pearl® to evaluate biodistribution.
Mice were administered with 0.25 (HT-29 model only), 1.0, 10, or 30 nmol cRGD-ZW800-1 to evaluate tumor signals, biodistribution, and to calculate TBRs (n = 3 per dose group). At 4 h (BxPC-3 model) and 24 h (HT-29 model) after injection, mice were fully dissected and fluorescence intensity of their organs was measured.
Mice bearing orthotopic OSC-19 tumors (n = 2) were administrated with 10 nmol cRGD-ZW800-1 and imaged at 4 h. Mice bearing orthotopic MCF-7 tumors (n = 2) were injected with 10 nmol cRGD-ZW800-1 and imaged at 0.5, 1, 2, 4, 6, 8, 24, and 48 h post injection. […] In vivo TBRs were calculated by dividing the mean fluorescence signals of tumors by the mean of surrounding tissue. Ex vivo organ-to-tumor ratios were calculated by dividing the fluorescence intensity of the organ by that of the tumor.

dopamine receptor D2S = biological target: T1, dopamine receptor D2S (Homo sapiens, UniProt P14416); assay: Off-target screening (Eurofins Cerep), D2S; type: binding
T1 construct: Eurofins Cerep SA (contract screening)

Cannabinoid CB2 = biological target: T2, Cannabinoid CB2 (Homo sapiens, UniProt P34972); assay: Off-target screening (Eurofins Cerep), CB2; type: binding
T2 construct: Eurofins Cerep SA (contract screening)

Serotonin channels 5-HT3 = biological target: T3, Serotonin channels 5-HT3 (Homo sapiens, UniProt P46098); assay: Off-target screening (Eurofins Cerep), 5-HT3; type: binding
T3 construct: Eurofins Cerep SA (contract screen)

Histamine H1 = biological target: T4, Histamine H1 (Homo sapiens, UniProt P35367); assay: biochemical; type: binding
T4 construct: Eurofins Cerep SA (contract screening)

MAO-A = biological target: T5, MAO-A (Rattus norvegicus, UniProt P21396); assay: Off-target screening (Eurofins Cerep), MAO-A; type: binding
T5 construct: Eurofins Cerep SA (contract screen)

Dopamine D1 = biological target: T6, Dopamine D1 (Homo sapiens, UniProt P21728); assay: Off-target screening (Eurofins Cerep), D1; type: binding
T6 construct: Eurofins Cerep SA (contract screening)

Opioid κ (KOP) = Opioid κ (KOP) (Rattus norvegicus, UniProt P34975); assay: biochemical; type: binding
[1] = biological target: Ca2+ channel (L, dihydropyridine site) (Rattus norvegicus, UniProt P22002); assay: Off-target screening (Eurofins Cerep), Ca2+ channel; type: binding
From the text: as §1

[2] = 10 μM, mean of 2, read-out: % of Control Specific Binding Mean
[3] = read-out: % Inhibition of Control Specific Binding
[4] = read-out: % of Control Specific Binding Mean

T5 sequence (P21396 whole entry): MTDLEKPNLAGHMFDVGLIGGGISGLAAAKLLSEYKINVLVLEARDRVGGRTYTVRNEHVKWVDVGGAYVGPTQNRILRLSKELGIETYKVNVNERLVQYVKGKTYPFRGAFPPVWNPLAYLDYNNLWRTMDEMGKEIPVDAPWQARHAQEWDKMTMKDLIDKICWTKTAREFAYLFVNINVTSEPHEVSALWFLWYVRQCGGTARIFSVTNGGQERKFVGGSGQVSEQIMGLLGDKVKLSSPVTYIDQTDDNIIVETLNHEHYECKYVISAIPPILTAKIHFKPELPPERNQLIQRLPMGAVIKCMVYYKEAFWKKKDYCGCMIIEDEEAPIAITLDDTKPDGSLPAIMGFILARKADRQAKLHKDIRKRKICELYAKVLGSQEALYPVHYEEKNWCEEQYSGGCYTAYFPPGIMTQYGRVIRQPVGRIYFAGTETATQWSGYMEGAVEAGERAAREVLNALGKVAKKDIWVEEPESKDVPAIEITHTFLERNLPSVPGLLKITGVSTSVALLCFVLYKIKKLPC
Ca2+ channel (L, dihydropyridine site), sequence (P22002 whole entry): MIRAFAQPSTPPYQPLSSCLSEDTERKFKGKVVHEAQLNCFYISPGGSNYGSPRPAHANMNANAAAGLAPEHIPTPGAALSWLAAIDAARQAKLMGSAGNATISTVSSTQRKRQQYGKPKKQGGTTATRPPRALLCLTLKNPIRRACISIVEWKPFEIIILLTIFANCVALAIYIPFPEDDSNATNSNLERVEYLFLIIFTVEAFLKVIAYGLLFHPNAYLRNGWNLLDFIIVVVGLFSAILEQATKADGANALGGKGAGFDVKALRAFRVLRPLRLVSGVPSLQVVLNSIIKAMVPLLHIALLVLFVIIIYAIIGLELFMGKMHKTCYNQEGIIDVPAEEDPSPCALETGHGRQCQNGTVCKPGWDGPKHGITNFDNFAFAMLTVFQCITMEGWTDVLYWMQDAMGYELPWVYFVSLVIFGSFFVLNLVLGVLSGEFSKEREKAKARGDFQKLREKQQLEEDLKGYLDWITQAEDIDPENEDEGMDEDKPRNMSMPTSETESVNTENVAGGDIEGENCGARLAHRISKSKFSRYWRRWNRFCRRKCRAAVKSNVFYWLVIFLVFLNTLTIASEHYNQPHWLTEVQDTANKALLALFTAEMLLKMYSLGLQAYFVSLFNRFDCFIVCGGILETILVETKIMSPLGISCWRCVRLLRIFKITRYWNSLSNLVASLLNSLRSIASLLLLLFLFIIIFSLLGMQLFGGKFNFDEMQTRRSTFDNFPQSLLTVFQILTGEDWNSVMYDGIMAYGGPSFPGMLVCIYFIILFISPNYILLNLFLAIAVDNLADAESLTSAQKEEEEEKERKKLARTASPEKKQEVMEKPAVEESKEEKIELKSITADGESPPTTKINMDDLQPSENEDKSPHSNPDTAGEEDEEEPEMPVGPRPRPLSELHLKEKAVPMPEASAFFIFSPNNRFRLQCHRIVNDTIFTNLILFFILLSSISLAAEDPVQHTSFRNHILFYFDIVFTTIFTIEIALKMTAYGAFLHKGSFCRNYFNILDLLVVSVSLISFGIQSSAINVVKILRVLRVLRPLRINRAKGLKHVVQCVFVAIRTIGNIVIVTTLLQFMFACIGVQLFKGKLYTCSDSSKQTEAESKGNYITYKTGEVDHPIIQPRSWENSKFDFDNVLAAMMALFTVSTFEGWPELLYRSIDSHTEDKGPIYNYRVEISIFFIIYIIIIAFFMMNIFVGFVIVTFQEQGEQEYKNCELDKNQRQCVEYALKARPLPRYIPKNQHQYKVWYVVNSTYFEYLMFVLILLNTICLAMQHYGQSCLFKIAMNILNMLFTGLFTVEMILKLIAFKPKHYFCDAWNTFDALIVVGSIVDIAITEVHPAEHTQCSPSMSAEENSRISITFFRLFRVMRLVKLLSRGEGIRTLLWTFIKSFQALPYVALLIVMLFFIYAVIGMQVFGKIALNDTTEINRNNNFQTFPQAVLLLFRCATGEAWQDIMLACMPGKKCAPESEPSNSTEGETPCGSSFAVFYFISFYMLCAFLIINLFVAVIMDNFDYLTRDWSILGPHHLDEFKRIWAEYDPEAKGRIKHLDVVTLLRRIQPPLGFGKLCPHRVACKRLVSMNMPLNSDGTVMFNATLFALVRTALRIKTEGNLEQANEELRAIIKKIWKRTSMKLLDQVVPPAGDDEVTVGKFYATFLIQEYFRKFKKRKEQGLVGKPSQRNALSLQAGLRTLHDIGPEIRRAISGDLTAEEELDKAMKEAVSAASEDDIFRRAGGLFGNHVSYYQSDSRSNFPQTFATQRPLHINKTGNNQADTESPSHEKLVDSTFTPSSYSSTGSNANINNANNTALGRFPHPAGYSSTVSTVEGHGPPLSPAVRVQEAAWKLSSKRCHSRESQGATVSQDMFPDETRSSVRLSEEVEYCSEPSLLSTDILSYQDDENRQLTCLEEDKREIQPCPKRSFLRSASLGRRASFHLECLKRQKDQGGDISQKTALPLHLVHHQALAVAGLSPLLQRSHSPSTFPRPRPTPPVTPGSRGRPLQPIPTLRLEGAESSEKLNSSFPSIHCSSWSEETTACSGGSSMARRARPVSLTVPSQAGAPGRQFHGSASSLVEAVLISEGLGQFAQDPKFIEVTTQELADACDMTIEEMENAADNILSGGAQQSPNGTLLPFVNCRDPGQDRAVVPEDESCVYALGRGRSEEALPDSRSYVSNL
T6 sequence (P21728 whole entry): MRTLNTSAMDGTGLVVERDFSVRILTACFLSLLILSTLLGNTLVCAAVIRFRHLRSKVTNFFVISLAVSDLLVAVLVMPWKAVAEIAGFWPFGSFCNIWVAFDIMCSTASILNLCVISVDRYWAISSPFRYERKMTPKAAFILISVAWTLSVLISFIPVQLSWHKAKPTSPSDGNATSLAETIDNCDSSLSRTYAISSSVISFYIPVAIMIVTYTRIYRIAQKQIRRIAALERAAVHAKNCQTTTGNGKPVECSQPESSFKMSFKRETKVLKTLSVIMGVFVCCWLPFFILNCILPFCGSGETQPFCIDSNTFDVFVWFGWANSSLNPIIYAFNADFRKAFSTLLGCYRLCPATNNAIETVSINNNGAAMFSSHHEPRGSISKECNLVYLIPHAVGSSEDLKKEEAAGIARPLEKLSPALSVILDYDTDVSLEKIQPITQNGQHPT
T2 sequence (P34972 whole entry): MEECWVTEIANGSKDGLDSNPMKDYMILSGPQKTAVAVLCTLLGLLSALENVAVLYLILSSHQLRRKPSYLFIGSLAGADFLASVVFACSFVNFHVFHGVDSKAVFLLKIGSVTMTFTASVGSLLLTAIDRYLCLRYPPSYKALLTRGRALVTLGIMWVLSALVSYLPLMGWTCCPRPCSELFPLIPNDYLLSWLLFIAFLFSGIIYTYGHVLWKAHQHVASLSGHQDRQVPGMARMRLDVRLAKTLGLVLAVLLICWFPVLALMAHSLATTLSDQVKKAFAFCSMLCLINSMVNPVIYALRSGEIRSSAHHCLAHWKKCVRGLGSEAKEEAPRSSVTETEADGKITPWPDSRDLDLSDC
T4 sequence (P35367 whole entry): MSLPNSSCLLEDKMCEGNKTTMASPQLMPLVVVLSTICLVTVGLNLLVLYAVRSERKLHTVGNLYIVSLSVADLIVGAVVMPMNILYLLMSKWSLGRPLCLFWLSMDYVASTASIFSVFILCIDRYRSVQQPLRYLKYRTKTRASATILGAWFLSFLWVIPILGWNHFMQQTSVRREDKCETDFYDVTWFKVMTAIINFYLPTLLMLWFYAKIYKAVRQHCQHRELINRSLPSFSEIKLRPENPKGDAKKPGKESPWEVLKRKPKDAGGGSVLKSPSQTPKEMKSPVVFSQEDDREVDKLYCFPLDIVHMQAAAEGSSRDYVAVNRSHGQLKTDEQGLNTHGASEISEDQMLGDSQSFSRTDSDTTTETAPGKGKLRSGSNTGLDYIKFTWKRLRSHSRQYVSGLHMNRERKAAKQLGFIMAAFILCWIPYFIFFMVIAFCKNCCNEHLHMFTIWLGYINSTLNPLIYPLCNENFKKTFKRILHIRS
T1 sequence (P14416 1-414 isoform P14416-2): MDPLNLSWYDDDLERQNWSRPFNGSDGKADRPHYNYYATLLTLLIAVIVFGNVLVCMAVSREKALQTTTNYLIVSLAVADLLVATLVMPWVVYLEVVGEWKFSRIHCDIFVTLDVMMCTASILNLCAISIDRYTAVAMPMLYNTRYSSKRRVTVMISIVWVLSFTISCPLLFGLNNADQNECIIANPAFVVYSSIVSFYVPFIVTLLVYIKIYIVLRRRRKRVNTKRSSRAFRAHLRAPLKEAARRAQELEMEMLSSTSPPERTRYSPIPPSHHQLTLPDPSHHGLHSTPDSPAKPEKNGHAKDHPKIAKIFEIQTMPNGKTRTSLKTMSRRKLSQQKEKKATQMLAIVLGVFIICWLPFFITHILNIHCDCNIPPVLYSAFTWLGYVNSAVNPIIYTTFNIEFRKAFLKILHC
Opioid κ (KOP), sequence (P34975 whole entry): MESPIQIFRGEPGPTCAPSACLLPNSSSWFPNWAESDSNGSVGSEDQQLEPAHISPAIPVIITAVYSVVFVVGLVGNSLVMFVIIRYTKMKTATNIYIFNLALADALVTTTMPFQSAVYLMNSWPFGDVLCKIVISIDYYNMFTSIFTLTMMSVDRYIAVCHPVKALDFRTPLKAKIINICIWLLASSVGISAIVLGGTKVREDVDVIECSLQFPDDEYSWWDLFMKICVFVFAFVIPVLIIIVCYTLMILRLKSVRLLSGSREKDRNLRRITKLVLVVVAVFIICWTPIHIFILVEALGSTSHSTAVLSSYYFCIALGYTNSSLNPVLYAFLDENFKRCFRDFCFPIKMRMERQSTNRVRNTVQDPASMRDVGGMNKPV

SMILES: CC1(C)C(/C=C/C2=C(Oc3ccc(CCC(=O)NCCCC[C@@H]4NC(=O)[C@@H](Cc5ccc(O)cc5)NC(=O)[C@H](CC(=O)O)NC(=O)CNC(=O)[C@H](CCCNC(=N)N)NC4=O)cc3)C(=C/C=C3/N(CCC[N+](C)(C)C)c4ccc(S(=O)(=O)O)cc4C3(C)C)/CCC2)=[N+](CCC[N+](C)(C)C)c2ccc(S(=O)(=O)O)cc21 [cRGD-ZW800-1]
- activity at 10 µM (Potassium Channel hERG): 106%
- % Inhibition of Control Specific Binding (KV channel; 10 μM cRGD-ZW800-1, format An, performed twice): 2%
- % of Control Specific Binding Mean (KV channel; 10 μM, mean of 2): 98.0%
- fluorescence signal in kidneys (all dose groups), liver and skin (only 10 and 30 nmol) compared to tumor (HT-29 tumors and organs): higher
- tumor fluorescence relative to lungs, pancreas, muscle, gallbladder, brain, and blood (HT-29 tumors and organs; all dose groups): more than twice as fluorescent
- inhibition at 10 µM (dopamine receptor D2S; 10 μM cRGD-ZW800-1, format H, An, performed twice, read-out: % Inhibition of Control Specific Binding): 22%
- remaining activity at 10 µM (dopamine receptor D2S; [2]): 78.2%
- inhibition at 10 µM (Cannabinoid CB2; 10 μM cRGD-ZW800-1, format H, Ag, performed twice, read-out: % Inhibition of Control Specific Binding): -11%
- remaining activity at 10 µM (Cannabinoid CB2; [2]): 111%
- inhibition at 10 µM (Serotonin channels 5-HT3; [3]): 12%
- remaining activity at 10 µM (Serotonin channels 5-HT3; [4]): 87.7%
- inhibition at 10 µM (Histamine H1; [3]): -5%
- remaining activity at 10 µM (Histamine H1; [4]): 105%
- inhibition at 10 µM (MAO-A; 10 μM cRGD-ZW800-1, format An, performed twice, read-out: % Inhibition of Control Specific Binding): 15%
- remaining activity at 10 µM (MAO-A; [2]): 85%
- inhibition at 10 µM (Dopamine D1; [3]): -1%
- remaining activity at 10 µM (Dopamine D1; [4]): 101%
- inhibition at 10 µM (Opioid κ (KOP); [3]): 19%
- remaining activity at 10 µM (Opioid κ (KOP); [4]): 81.2%
- inhibition at 10 µM ([1]; Ca2+ channel (L, dihydropyridine site), 10 μM cRGD-ZW800-1, format An, performed twice, read-out: % Inhibition of Control Specific Binding): 15%
- remaining activity at 10 µM ([1]; Ca2+ channel, 10 μM, mean of 2, read-out: % of Control Specific Binding Mean): 84.6%
